Experiments:
[1] = tested on: cardiomyocytes derived from human induced pluripotent stem cells; test: Doxorubicin-induced apoptosis (TUNEL), 48 hours; assay type: cell-based; settings: 1 μM doxorubicin, VIT 115 μM, Dex 160 μM, AMB 0.76 μM, NAC 50 μM, KAE 17 μM, MES 10 μM
Protocol: Following treatment, the samples were incubated with a TUNEL dye to indicate apoptosis-positive cells, and a second dye to identify cell nuclei.

[2] = tested on: MDA-MB-231 breast cancer cells; test: Cell viability with doxorubicin (CellTiter-Glo); assay type: cell-based; settings: co-treated with increasing concentrations of doxorubicin, 72 hours
[3] = tested on: human induced pluripotent stem cell-derived cardiomyocytes; test: Electrophysiological activity with doxorubicin (active electrodes, MEA); assay type: cell-based; settings: for decrease in the number of active electrodes: 24 hours
Protocol: Samples were either mock-treated with 0.1% DMSO, treated with 1 μM doxorubicin, or co-treated with 1 μM doxorubicin and various concentrations of vitexin (e.g., 11.6 μM, 37 μM, or 116 μM). Following treatment, the percentage of active electrodes in each sample was measured for 72 hours. Percentage of active electrodes was quantified and graphed in a time course (FIG. 28A). The average number of active electrodes per well was quantified and graphed at 30 hours after the treatment (FIG. 28B, n=6, standard deviation is shown as error bars).

[4] = tested on: induced pluripotent stem cell-derived cardiomyocytes; test: Long term toxicity on electrophysiology (active electrodes, MEA); assay type: cell-based; settings: various concentrations, at least 5 days
Protocol: Samples were either mock-treated with 0.1% DMSO, or treated with various concentrations of the indicated drug. Following treatment, the percentage of active electrodes in each sample was measured for at least 5 days. Percentage of active electrodes was quantified and graphed in a time course.

patient = test: Patient treatment examples (echocardiogram / electrocardiogram); assay type: in vivo, human
Protocol: A patient, with a history of heart disease, is diagnosed with breast cancer. Due to an increased risk for heart failure, the patient is unable to receive the standard treatment regimen of doxorubicin, which is known to induce cardiotoxicity. Instead, the caregiver administers a co-formulation of doxorubicin (10 mg) and vitexin (100 mg). An echocardiogram is performed and blood flow rate is measured to determine if the therapy has a cardiotoxic effect in the patient.
A patient is diagnosed with liver cancer. […] The patient presents with a 20 ms QT prolongation. […] The patient is able to continue receiving treatment over several weeks after which a tissue biopsy is performed to confirm the liver cancer has been eradicated.
A patient is diagnosed with stage II lung cancer, and presents with bradycardia. Due to an increased risk for heart failure, the patient is unable to receive the standard treatment regimen of doxorubicin, which is known to affect cardiac contraction and induce bradycardia. Instead, the caregiver administers a co-formulation of doxorubicin (10 mg) and myricetin (100 mg). An electrocardiogram is used to monitor the patient's heart rate. […] The lung cancer is down-staged to stage 1, and the cancer is successfully removed with surgery.
A patient is diagnosed with stage II lung cancer, and presents with bradycardia. Due to an increased risk for heart failure, the patient is unable to receive the standard treatment regimen of doxorubicin, which is known to affect cardiac contraction and induce bradycardia. Instead, the caregiver administers myricetin (100 mg) 24 hours before administration of doxorubicin (10 mg). An electrocardiogram is used to monitor the patient's heart rate. […] The lung cancer is down-staged to stage 1, and the cancer is successfully removed with surgery.

[5] = tested on: induced pluripotent stem cell-derived cardiomyocytes; test: Acute toxicity on electrophysiology (MEA beat period, field potential duration); assay type: cell-based; settings: lower drug concentration, at least 20 minutes
Protocol: Samples were either mock-treated with 0.1% DMSO, or treated with increasing concentrations of the indicated drug for at least 20 minutes. Cardiomyocytes were treated with the hERG potassium channel blocker E4031 as a control. Following treatment, the beat period and field potential duration (FPD) were measured in each sample using the MEA.

A549 cells (lung cancer) = test: Cell viability with doxorubicin (CellTiter-Glo); assay type: cell-based; settings: co-treated with increasing concentrations of doxorubicin, 72 hours
Protocol: A549 cells (lung cancer) were cultured for 1 day before performing experiments. […] XLFit was used for curve fitting.

[6] = tested on: human induced pluripotent stem cell-derived cardiomyocytes; test: Long-term mitochondrial health (TMRM), 7 days; assay type: cell-based; settings: 1 μM doxorubicin alone or with dexrazoxane or vitexin
Protocol: Following treatment, the samples were incubated with a tetramethylrhodamine methyl ester (TMRM) dye to indicate mitochondrial health. […] Representative images are presented for each sample, wherein loss of TMRM signal represents mitochondrial toxicity.

[7] = tested on: TOPOII enzymes (TOPOIIα and TOPOIIβ); test: kDNA decatenation assay, TOPOIIα and TOPOIIβ jointly; assay type: biochemical; settings: discussion of Table 1
Protocol: 200 ng of kinetoplast DNA (kDNA) was incubated with one enzymatic unit of TOPOIIα or TOPOIIβ enzyme (Inspiralis) and with various concentrations of MYR or DEX at 37° C. for 30 min. The reaction was then separated on 1% agarose gel for visualization of decatenated DNA (bottom band). The efficiency of catalytic inhibition was quantified by measuring the relative intensity of the band.

[8] = tested on: cardiomyocytes derived from human induced pluripotent stem cells; test: Doxorubicin-induced mitochondrial toxicity (TMRM-negative cells), 48 hours; assay type: cell-based; settings: 1 μM doxorubicin, KAE 17 μM, AMB 0.76 μM, MES 10 μM, NAC 50 μM, Dex 160 μM, VIT 115 μM
Protocol: Following treatment, the samples were incubated with a tetramethylrhodamine methyl ester (TMRM) dye to indicate mitochondrial health, and a second dye to identify cell nuclei.

TOPOIIβ = target: T1, TOPOIIβ (Homo sapiens, UniProt Q02880); test: kDNA decatenation assay; assay type: biochemical
T1 construct: purchased Inspiralis

[9] = tested on: Human iPSC-derived cardiomyocytes; test: Cytotoxicity of MYR analogs to cardiomyocytes; settings: for cytotoxicity / toxic effects to cardiomyocytes (in words): at or below 100 μM as stated
[10] = tested on: Doxorubicin treated human iPSC-derived cardiomyocytes; test: iPSC-CM protection of MYR analogs against doxorubicin; assay type: cell-based; settings: discussion of Table 1
TOPOIIα = target: T2, TOPOIIα (Homo sapiens, UniProt P11388); test: kDNA decatenation assay; assay type: biochemical
T2 construct: purchased Inspiralis
T2 sequence (P11388 whole entry): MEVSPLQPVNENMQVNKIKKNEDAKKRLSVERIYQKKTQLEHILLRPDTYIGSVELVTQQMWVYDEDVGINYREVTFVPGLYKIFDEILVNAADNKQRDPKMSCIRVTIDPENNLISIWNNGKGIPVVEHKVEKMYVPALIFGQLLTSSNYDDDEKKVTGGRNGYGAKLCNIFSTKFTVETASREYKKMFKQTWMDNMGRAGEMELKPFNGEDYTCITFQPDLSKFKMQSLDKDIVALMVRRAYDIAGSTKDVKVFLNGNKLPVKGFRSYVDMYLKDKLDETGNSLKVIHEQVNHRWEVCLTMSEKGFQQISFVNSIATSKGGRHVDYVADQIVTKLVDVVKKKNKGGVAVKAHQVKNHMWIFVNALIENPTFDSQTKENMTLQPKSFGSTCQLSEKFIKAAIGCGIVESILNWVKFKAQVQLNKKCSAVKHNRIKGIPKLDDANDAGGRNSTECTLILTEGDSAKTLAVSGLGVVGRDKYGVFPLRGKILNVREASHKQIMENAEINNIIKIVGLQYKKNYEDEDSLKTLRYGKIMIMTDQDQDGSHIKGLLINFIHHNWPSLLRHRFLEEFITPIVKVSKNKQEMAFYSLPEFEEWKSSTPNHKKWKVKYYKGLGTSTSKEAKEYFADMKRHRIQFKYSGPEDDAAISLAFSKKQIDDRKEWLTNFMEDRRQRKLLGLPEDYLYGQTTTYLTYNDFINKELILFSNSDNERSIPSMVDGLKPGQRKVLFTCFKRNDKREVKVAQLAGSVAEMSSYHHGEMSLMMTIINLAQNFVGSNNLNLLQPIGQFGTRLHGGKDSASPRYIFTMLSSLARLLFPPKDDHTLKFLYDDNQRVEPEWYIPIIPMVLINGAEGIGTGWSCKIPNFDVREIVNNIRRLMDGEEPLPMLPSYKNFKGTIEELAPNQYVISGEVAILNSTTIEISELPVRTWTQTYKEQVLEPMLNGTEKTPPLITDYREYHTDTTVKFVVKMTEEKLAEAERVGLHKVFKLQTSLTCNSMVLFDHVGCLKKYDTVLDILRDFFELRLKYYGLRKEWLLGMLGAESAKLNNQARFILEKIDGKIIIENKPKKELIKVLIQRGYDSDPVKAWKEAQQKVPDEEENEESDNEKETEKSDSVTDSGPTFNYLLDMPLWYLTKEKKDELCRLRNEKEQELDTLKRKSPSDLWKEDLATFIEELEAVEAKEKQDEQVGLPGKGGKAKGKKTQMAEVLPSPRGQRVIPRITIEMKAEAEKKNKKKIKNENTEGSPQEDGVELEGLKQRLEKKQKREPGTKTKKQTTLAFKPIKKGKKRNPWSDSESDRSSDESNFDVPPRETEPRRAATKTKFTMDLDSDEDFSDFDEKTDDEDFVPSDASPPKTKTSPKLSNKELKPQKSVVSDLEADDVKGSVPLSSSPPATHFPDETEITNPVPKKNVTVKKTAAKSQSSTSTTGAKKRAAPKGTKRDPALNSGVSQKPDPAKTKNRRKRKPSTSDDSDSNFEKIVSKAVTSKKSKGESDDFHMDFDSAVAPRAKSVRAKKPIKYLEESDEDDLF

T1 sequence (Q02880 whole entry): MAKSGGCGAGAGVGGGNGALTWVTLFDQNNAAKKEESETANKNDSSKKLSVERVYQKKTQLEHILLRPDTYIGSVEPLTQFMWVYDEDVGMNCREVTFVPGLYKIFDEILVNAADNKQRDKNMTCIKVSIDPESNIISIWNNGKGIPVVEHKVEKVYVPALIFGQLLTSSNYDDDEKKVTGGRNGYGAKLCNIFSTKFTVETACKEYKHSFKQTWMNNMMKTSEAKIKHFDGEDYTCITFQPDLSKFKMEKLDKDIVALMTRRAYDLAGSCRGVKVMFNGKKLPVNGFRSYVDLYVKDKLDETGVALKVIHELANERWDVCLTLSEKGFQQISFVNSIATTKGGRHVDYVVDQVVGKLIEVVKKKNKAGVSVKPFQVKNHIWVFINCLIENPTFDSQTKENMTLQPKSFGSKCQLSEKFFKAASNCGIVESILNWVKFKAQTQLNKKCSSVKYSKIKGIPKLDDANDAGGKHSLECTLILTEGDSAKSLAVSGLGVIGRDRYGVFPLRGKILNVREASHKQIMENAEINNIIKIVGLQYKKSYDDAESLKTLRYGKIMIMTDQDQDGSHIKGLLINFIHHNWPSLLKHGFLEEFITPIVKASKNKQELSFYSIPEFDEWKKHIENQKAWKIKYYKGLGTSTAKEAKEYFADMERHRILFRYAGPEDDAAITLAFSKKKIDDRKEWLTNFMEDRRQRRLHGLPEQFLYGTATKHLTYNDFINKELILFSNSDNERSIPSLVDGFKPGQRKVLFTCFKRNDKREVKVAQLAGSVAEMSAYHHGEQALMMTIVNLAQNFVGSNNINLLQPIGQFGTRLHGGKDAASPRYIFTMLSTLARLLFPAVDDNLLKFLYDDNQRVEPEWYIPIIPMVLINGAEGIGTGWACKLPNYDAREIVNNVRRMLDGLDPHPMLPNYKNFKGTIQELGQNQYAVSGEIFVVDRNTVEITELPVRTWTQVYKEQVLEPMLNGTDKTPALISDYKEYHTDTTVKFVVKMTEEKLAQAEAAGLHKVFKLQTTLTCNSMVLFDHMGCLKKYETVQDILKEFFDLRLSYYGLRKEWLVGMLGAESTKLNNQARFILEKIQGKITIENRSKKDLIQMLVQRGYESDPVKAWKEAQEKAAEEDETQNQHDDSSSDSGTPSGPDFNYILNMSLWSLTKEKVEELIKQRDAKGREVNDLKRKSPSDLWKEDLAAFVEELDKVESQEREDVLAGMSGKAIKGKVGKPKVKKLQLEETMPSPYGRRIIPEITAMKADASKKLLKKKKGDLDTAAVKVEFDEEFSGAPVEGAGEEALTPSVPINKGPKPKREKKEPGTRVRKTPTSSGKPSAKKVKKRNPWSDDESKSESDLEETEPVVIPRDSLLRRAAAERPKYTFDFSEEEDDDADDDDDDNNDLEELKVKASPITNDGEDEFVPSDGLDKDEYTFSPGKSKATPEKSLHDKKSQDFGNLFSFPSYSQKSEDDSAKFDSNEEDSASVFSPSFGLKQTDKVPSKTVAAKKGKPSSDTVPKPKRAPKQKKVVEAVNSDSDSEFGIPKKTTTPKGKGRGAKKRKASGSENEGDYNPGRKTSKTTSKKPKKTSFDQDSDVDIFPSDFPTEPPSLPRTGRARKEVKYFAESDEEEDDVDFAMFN

Row | Structure (SMILES) | decrease in apoptosis vs doxorubicin alone [1] | percentage of cell death vs doxorubicin in the absence of a protective agent [2] | decrease in the number of active electrodes ([3]; 1 μM doxorubicin and 11.6 μM vitexin) [%] | decrease in the number of active electrodes ([3]; 1 μM doxorubicin and 37 μM vitexin) [%] | decrease in the number of active electrodes ([3]; 1 μM doxorubicin and 116 μM vitexin) [%] | average number of active electrodes ([3]; 1 μM doxorubicin and 116 μM vitexin, 30 hours) | number of active electrodes relative to the mock-treated sample (in words) [4] | QT prolongation (in words) (patient; doxorubicin (5 mg/mL) given with the protective agent) | cardiac dysfunction in the patient (patient; protective agent 100 mg co-formulated with, or 24 hours before, doxorubicin 10 mg) | beat period or field potential duration, as compared to control samples [5] | percentage of cell death vs doxorubicin in the absence of a protective agent (A549 cells (lung cancer)) | mitochondrial toxicity / protection (TMRM-positive cells) [6] | TOPOII (TOPOIIα and TOPOIIβ) inhibition (in words) [7] | decrease in mitochondrial toxicity vs doxorubicin alone [8] | TOPOIIβ Inhibition (TOPOIIβ) | Toxicity ([9]; 100 μM) | cytotoxicity / toxic effects to cardiomyocytes (in words) ([9]; listed as Kaempferol) | cytotoxicity / toxic effects to cardiomyocytes (in words) ([9]; listed as kaempferol) | cardioprotection (in words) [10] | TOPOIIα Inhibition (TOPOIIα)
1 | O=c1cc(-c2ccc(O)cc2)oc2c([C@@H]3O[C@H](CO)[C@@H](O)[C@H](O)[C@H]3O)c(O)cc(O)c12 [vitexin] | at least 60% | no significant difference | ~50 | ~25 | ~0 | about 10 active electrodes | no observable decrease | no signs of QT prolongation | no indication of cardiac dysfunction | no appreciable difference | no significant difference | improved long term mitochondrial protection |  |  |  |  |  |  |  | 
2 | O=c1c(O)c(-c2ccc(O)cc2)oc2cc(O)cc(O)c12 [Compound 7, 3,5,7,4′-tetrahydroxyflavone] |  | no significant difference |  |  |  |  | no observable decrease |  |  |  | no significant difference |  | did not exhibit any inhibitory effect | at least 60% | − | − | without some level of cytotoxicity at 100 μM | did not show toxic effects below 100 μM | moderate level of cardioprotection | −

Source: patent US20170224654A1, “PHARMACEUTICAL COMPOSITIONS AND METHODS FOR COUNTERING CHEMOTHERAPY INDUCED CARDIOTOXICITY” (Stem Cell Theranostics, Inc., priority 2016, published 2017)
